# Measured values from patent publication US10178867B2, “Treating microbe contamination in water with THP salts and polymeric biopenetrants” (priority 2004, dated 2019).
# Assays:
# GHB [1] = assay: Biofilm (sessile) test, freshwater (WHO); format: cell-based, general heterotrophic bacteria; settings: after 75 ppm ai THPS dosed for 3 hours
# Excerpt: Biofilm (Sessile) Tests: Freshwater (WHO)
# SRB [2] = assay: Biofilm test, seawater (SMOW), SRB; format: cell-based, sulphate reducing bacteria; settings: after 75 ppm ai THPS dosed for 3 hours
# Excerpt: (§1) Biofilm Tests: Seawater (SMOW)
# GHB [3] = assay: Quantitative suspension test in de inking water, GHB; format: cell-based, general heterotrophic bacteria; settings: 75 ppm ai THPS, 3 hour contact
# Excerpt: (§2) Quantitative Suspension Test in De Inking Water
# GHB [4] = assay: Biofilm test, seawater (SMOW), GHB; format: cell-based, general heterotrophic bacteria; settings: after 75 ppm ai THPS dosed for 3 hours
# Excerpt: as §1
# SRB [5] = assay: Quantitative suspension test in de inking water, SRB; format: cell-based, sulphate reducing bacteria; settings: 75 ppm ai THPS, 3 hour contact
# Excerpt: as §2
# [6] = system: General Heterotrophic Bacteria; assay: Quantitative suspension test (planktonic bacteria) in WHO water; format: cell-based; settings: 50 ppm ai THPS
# Excerpt: Quantitative Suspension Test (Planktonic Bacteria) in WHO Water
substance,measurement,setting,value
tetrakis(hydroxymethyl)phosphonium sulphate [Unformulated THPS],"Viable bacteria, GHB",GHB [1],1 × 10^5
same,"Viable bacteria, SRB",SRB [2],1 × 10^4
same,"Log reduction values, GHB",GHB [3],3.8
same,"Viable bacteria, GHB",GHB [4],1 × 10^2
same,"Log reduction values, SRB",SRB [5],3
same,Log Reduction of General Heterotrophic Bacteria,[6]; 1 hour contact,1
same,Log Reduction of General Heterotrophic Bacteria,[6]; 3 hour contact,5.8
